The values below come from patent EP0475531A1, “Benzoic acid phenylester compounds and elastase inhibiting compositions containing the same” (Asahi Kasei Kogyo Kabushiki Kaisha, priority 1990, dated 1992).

The test concerns the target T1, human leukocyte elastase (Homo sapiens, UniProt P08246).
T1 sequence (P08246 30-267): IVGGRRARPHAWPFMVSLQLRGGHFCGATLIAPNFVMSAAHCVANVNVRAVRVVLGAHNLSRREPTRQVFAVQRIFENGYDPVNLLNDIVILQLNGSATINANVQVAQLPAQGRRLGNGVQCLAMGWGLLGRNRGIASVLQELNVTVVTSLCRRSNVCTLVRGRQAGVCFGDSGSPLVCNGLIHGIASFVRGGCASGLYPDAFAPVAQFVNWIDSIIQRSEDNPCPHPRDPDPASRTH
The test can be described thus: in vitro human leukocyte elastase inhibiting activity (fluorogenic substrate, method of JP-A-2-101017 with slight modification). The following applies: 50% inhibitory concentration; substrate methoxysuccinyl-Ala-Ala-Pro-Val-7-amido-4-methylcoumarin; 0.2 M Tris-hydrochloride buffer (0.02 M CaCl2, 0.005% Triton X-100), pH 7.2; compound and enzyme incubated at 25°C for 20 minutes; read-out: IC50. The format is biochemical. The protocol: Thus, methoxysuccinyl-Ala-Ala-Pro-Val-7-amido-4-methylcoumarin was used as a substrate for human leukocyte elastase and the 50% inhibitory concentration (IC₅₀) was measured. The enzymatic reaction was carried out in 0.2 M Tris-hydrochloride buffer (containing 0.02 M CaCl₂ and 0.005% Triton X-100) at pH 7.2. Each mixture of test compound solution and the enzyme solution was incubated at 25°C for 20 minutes.

Each structure is given as a SMILES string.

As usually defined, the IC50 is the point on the concentration scale where inhibition reaches its midpoint. For the compound `COc1cc(Cl)cc(OC(=O)c2ccc(NC(=O)C(C)C)cc2)c1` [Compound 90, 3-chloro-5-methoxyphenyl 4-(isobutanoylamino)benzoate], the IC50 stood at 11 nM.

For the compound `COc1cc(OC)cc(OC(=O)c2ccc(NC(=O)C(C)C)cc2)c1` [Compound 91, 3,5-dimethoxyphenyl 4-(isobutanoylamino)benzoate], the IC50 was 300 nM.

Regarding `CC(C)C(=O)Nc1ccc(C(=O)Oc2cccc([N+](=O)[O-])c2)cc1` [Compound 92, 3-nitrophenyl 4-(isobutanoylamino)benzoate], the concentration for half-maximal inhibition (IC50) is 91 nM.

`CC(=O)Oc1cc(C#N)cc(OC(=O)c2ccc(NC(=O)C(C)C)cc2)c1` [Compound 93, 3-cyano-5-acetoxyphenyl 4-(isobutanoylamino)benzoate]: the IC50 came out at 36 nM.

In the case of `CC(C)C(=O)Nc1ccc(C(=O)Oc2cccc(C(F)(F)F)c2)cc1` [Compound 94, 3-trifluoromethylphenyl 4-(isobutanoylamino)benzoate], the IC50 is 240 nM.

For `N=C(N)Nc1ccc(C(=O)Oc2cc(Cl)cc(Cl)c2)cc1` [Compound 95, reference compound], the IC50 amounted to 570 nM.
